Data taken from PubChem BioAssay AID2060495 (Molecular Pharmacology Branch, DTP, NCI, 2025).

Test system: 521955-158-R2-J5-PDC complex spheroid viability
Assay: Anticancer human tumor 521955-158-R2-J5-PDC patient-derived pancreatic carcinoma cell line growth inhibition [GQUAD]
Conditions: for IC50: curve of first compound; for viability, T/C: stronger effect = lower value
From the text: DNA G-quadruplex Stabilizer Agents in Combinations in Complex Spheroids
A high-throughput screen of multi-cell type tumor spheroids was designed to identify active combinations of DNA G-quadruplex stabilizer agents and targeted small molecules. Complex spheroids include a stromal component modeled by human endothelial cells (HUVEC) and fibroblasts modeled by human mesenchymal stem cells (MSCs). The concentration ranges selected for each drug and investigational agent were based upon clinically achievable concentrations if the clinical Cmax of the agent was known.
Compounds. The drugs and investigational agents: pidnarulex (CX-5461; NSC782164), APTO-253 (NSC789042), BRACO-19 (NSC847499), peposertib (NSC802822), ceralasertib (NSC780249), elimusertib (NSC800525), camonsertib (NSC841442), AZD-1390 (NSC803789), olaparib (NSC753686), talazoparib (NSC767125), ART-558 (NSC835418), sotorasib (NSC818433), MRTX-1133 (NSC836407), SN-38 (NSC673596), topotecan (NSC609699), etoposide (NSC141540), doxorubicin (NSC123127), gemcitabine (NSC613327), 5-fluorouracil (NSC19893), paclitaxel (NSC125973), vemurafenib (NSC761431), panobinostat (NSC761190), R-306465 (JNJ-16241199; NSC773264), adavosertib (NSC754352), TP-3654 (NSC805149), carboplatin (NSC241240), KSQ-4279 (NSC840948), and staurosporine (NSC755774) were obtained from the National Cancer Institute (NCI) Developmental Therapeutics Program Chemical Repository (34). The FDA-approved anticancer drug set is available from the NCI Developmental Therapeutics Program. […] The stock solutions were prepared in dimethyl sulfoxide (DMSO, Sigma-Aldrich, St. Louis, MO, cat. D2650) at 800-fold the tested concentration and stored at -70 degrees C prior to their use. All drugs and investigational agents were tested over a range starting from a high concentration at or near the clinical Cmax and decreasing in half-log increments. If the clinical Cmax for an agent had not been determined, the highest concentration tested was 10 microM.
2.3 Cell Culture. All cells were maintained in an incubator at 37 degrees C and 5% CO2 with 95% humidity. The PDC lines were cultured according to standard operating procedures established by the NCI PDMR. All PDCs were thawed and cultured in Matrigel-coated flasks prepared with a working solution of 1X Ham's F-12 nutrient mix, without supplementation (Invitrogen, cat. 11765054), 100 U/mL penicillin-streptomycin (Invitrogen, cat. 15140122), and 2.5% Matrigel (Corning Inc., cat. 354248) for the first three passages. The 857933-349-R-J2-PDC line was cultured in 6C/Colon 1B media, which includes advanced DMEM/F-12 (Thermo Fisher Scientific, cat. 12634028), 10 mM HEPES (Thermo Fisher Scientific, cat. 15630080), 1X GlutaMAX supplement (Thermo Fisher Scientific, cat. 35050061), 0.1 mg/mL primocin (InvivoGen, cat. ant-pm-2), 10% defined fetal bovine serum, heat inactivated (HyClone Laboratories Inc., cat. SH30070.03HI), 50% L-WRN conditioned media (ATCC, cat. CRL-3276), 1.25 mM N-Acetyl-L-cysteine (Sigma-Aldrich, cat. A9165), 10 mM nicotinamide (Sigma-Aldrich, cat. N0636), 1X B-27 supplement (Thermo Fisher Scientific, cat. 17504044), 1X N-2 supplement (Thermo Fisher Scientific, cat. 17502048), 10 microM Y-27632 dihydrochloride (Tocris Bioscience, cat. 1254), and 50 ng/mL human EGF recombinant protein (Thermo Fisher Scientific, cat. PHG0311). The 485176-168-R4-J1-PDC line was cultured in Panc media, which includes all 6C/Colon 1B media components plus 100 ng/mL human FGF-10 (Thermo Fisher Scientific, cat. 100-26), 500 nM SB-431542 (Selleckchem, cat. S1067), and gastrin (Tocris, cat. 3006).
[…]

[1] = second compound 0.0316 µM, first compound 0.0316 µM
[2] = second compound 0.0316 µM, first compound 0.1 µM
[3] = second compound 0.0316 µM, first compound 0.316 µM
[4] = second compound 0.0316 µM, first compound 1 µM
[5] = second compound 0.0316 µM, first compound 3.16 µM
[6] = second compound 0.0316 µM, first compound 10 µM
[7] = second compound 0.1 µM, first compound 0.0316 µM
[8] = second compound 0.1 µM, first compound 0.1 µM
[9] = second compound 0.1 µM, first compound 0.316 µM
[10] = second compound 0.1 µM, first compound 1 µM
[11] = second compound 0.1 µM, first compound 3.16 µM
[12] = second compound 0.1 µM, first compound 10 µM
[13] = second compound 0.316 µM, first compound 0.0316 µM
[14] = second compound 0.316 µM, first compound 0.1 µM
[15] = second compound 0.316 µM, first compound 0.316 µM
[16] = second compound 0.316 µM, first compound 1 µM
[17] = second compound 0.316 µM, first compound 3.16 µM
[18] = second compound 0.316 µM, first compound 10 µM
[19] = second compound 1 µM, first compound 0.0316 µM
[20] = second compound 1 µM, first compound 0.1 µM
[21] = second compound 1 µM, first compound 0.316 µM
[22] = second compound 1 µM, first compound 1 µM
[23] = second compound 1 µM, first compound 3.16 µM
[24] = second compound 1 µM, first compound 10 µM
[25] = second compound 3.16 µM, first compound 0.0316 µM
[26] = second compound 3.16 µM, first compound 0.1 µM
[27] = second compound 3.16 µM, first compound 0.316 µM
[28] = second compound 3.16 µM, first compound 1 µM
[29] = second compound 3.16 µM, first compound 3.16 µM
[30] = second compound 3.16 µM, first compound 10 µM
[31] = second compound 10 µM, first compound 0.0316 µM
[32] = second compound 10 µM, first compound 0.1 µM
[33] = second compound 10 µM, first compound 0.316 µM
[34] = second compound 10 µM, first compound 1 µM
[35] = second compound 10 µM, first compound 3.16 µM
[36] = second compound 10 µM, first compound 10 µM
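Further: spheroids exposed to agents for one week before reading.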
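Wherever viability, T/C is given: 100% = DMSO vehicle control viability.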

CCCS(=O)(=O)Nc1ccc(F)c(C(=O)c2c[nH]c3ncc(-c4ccc(Cl)cc4)cc23)c1F + Cc1[nH]c2ccc(F)cc2c1-c1nc2c3cccnc3c3ncccc3c2[nH]1
IC50 (second compound 0.0316 µM): > 10000 nM | IC50 (second compound 0.1 µM): > 10000 nM | IC50 (second compound 0.316 µM): > 10000 nM | IC50 (second compound 1 µM): > 10000 nM | IC50 (second compound 3.16 µM): > 10000 nM | IC50 (second compound 10 µM): > 10000 nM | viability, T/C [1]: 103% | viability, T/C [2]: 95.9% | viability, T/C [3]: 79.8% | viability, T/C [4]: 105% | viability, T/C [5]: 198% | viability, T/C [6]: 112% | viability, T/C [7]: 104% | viability, T/C [8]: 86% | viability, T/C [9]: 72.1% | viability, T/C [10]: 97.4% | viability, T/C [11]: 226% | viability, T/C [12]: 96.9% | viability, T/C [13]: 97.2% | viability, T/C [14]: 95.5% | viability, T/C [15]: 78.6% | viability, T/C [16]: 101% | viability, T/C [17]: 226% | viability, T/C [18]: 105% | viability, T/C [19]: 99.9% | viability, T/C [20]: 88.6% | viability, T/C [21]: 78.1% | viability, T/C [22]: 102% | viability, T/C [23]: 272% | viability, T/C [24]: 95.2% | viability, T/C [25]: 92.3% | viability, T/C [26]: 76% | viability, T/C [27]: 65% | viability, T/C [28]: 220% | viability, T/C [29]: 265% | viability, T/C [30]: 99.9% | viability, T/C [31]: 99.8% | viability, T/C [32]: 84.9% | viability, T/C [33]: 64.9% | viability, T/C [34]: 173% | viability, T/C [35]: 258% | viability, T/C [36]: 84.6%

Nc1ccn(C2OC(CO)C(O)C2(F)F)c(=O)n1 (stereo not drawn) + Cc1[nH]c2ccc(F)cc2c1-c1nc2c3cccnc3c3ncccc3c2[nH]1
IC50 (second compound 0.0316 µM): 421 nM | IC50 (second compound 0.1 µM): 424 nM | IC50 (second compound 0.316 µM): 436 nM | IC50 (second compound 1 µM): 449 nM | IC50 (second compound 3.16 µM): 485 nM | IC50 (second compound 10 µM): 467 nM | viability, T/C [1]: 78.3% | viability, T/C [2]: 83.1% | viability, T/C [3]: 61.9% | viability, T/C [4]: 13.8% | viability, T/C [5]: 10.5% | viability, T/C [6]: 7.49% | viability, T/C [7]: 77.1% | viability, T/C [8]: 79.2% | viability, T/C [9]: 58.9% | viability, T/C [10]: 22.3% | viability, T/C [11]: 10.8% | viability, T/C [12]: 6.82% | viability, T/C [13]: 89% | viability, T/C [14]: 75.3% | viability, T/C [15]: 64.1% | viability, T/C [16]: 15% | viability, T/C [17]: 10.6% | viability, T/C [18]: 7.06% | viability, T/C [19]: 88.9% | viability, T/C [20]: 80.4% | viability, T/C [21]: 61.6% | viability, T/C [22]: 25.1% | viability, T/C [23]: 9.92% | viability, T/C [24]: 7.24% | viability, T/C [25]: 92.8% | viability, T/C [26]: 93.3% | viability, T/C [27]: 66.4% | viability, T/C [28]: 21.8% | viability, T/C [29]: 12.9% | viability, T/C [30]: 10.2% | viability, T/C [31]: 109% | viability, T/C [32]: 104% | viability, T/C [33]: 61.7% | viability, T/C [34]: 25.3% | viability, T/C [35]: 8.99% | viability, T/C [36]: 7.65%

O=c1[nH]cc(F)c(=O)[nH]1 + Cc1[nH]c2ccc(F)cc2c1-c1nc2c3cccnc3c3ncccc3c2[nH]1
IC50 (second compound 0.0316 µM): 3720 nM | IC50 (second compound 0.1 µM): 4880 nM | IC50 (second compound 0.316 µM): 3090 nM | IC50 (second compound 1 µM): 2480 nM | IC50 (second compound 3.16 µM): 2530 nM | IC50 (second compound 10 µM): 2080 nM | viability, T/C [1]: 110% | viability, T/C [2]: 84.6% | viability, T/C [3]: 76% | viability, T/C [4]: 96.7% | viability, T/C [5]: 55% | viability, T/C [6]: 19.6% | viability, T/C [7]: 99.6% | viability, T/C [8]: 97.1% | viability, T/C [9]: 90.7% | viability, T/C [10]: 89.6% | viability, T/C [11]: 67% | viability, T/C [12]: 21.1% | viability, T/C [13]: 90.9% | viability, T/C [14]: 94.3% | viability, T/C [15]: 104% | viability, T/C [16]: 97.8% | viability, T/C [17]: 48.9% | viability, T/C [18]: 16.2% | viability, T/C [19]: 95.2% | viability, T/C [20]: 114% | viability, T/C [21]: 91.1% | viability, T/C [22]: 91.4% | viability, T/C [23]: 38.9% | viability, T/C [24]: 22% | viability, T/C [25]: 106% | viability, T/C [26]: 97.2% | viability, T/C [27]: 107% | viability, T/C [28]: 104% | viability, T/C [29]: 37.1% | viability, T/C [30]: 18.2% | viability, T/C [31]: 105% | viability, T/C [32]: 104% | viability, T/C [33]: 103% | viability, T/C [34]: 88.5% | viability, T/C [35]: 28% | viability, T/C [36]: 19.3%

CC1COCCN1c1cc(-c2ccnn2C)c2ccnc(-c3ccn[nH]3)c2n1 (stereo not drawn) + Cc1cnc(CNC(=O)c2c(=O)c3ccc(N4CCCN(C)CC4)nc3n3c2sc2ccccc23)cn1
IC50 (second compound 0.0316 µM): < 31.6 nM | IC50 (second compound 0.1 µM): < 31.6 nM | IC50 (second compound 0.316 µM): < 31.6 nM | IC50 (second compound 1 µM): < 31.6 nM | IC50 (second compound 3.16 µM): < 31.6 nM | IC50 (second compound 10 µM): < 31.6 nM | viability, T/C [1]: 33.3% | viability, T/C [2]: 10.8% | viability, T/C [3]: 10.1% | viability, T/C [4]: 11.2% | viability, T/C [5]: 14.3% | viability, T/C [6]: 20.8% | viability, T/C [7]: 28.9% | viability, T/C [8]: 12.6% | viability, T/C [9]: 10.6% | viability, T/C [10]: 10.2% | viability, T/C [11]: 12.9% | viability, T/C [12]: 15.9% | viability, T/C [13]: 29.5% | viability, T/C [14]: 16.6% | viability, T/C [15]: 13.1% | viability, T/C [16]: 11.2% | viability, T/C [17]: 12% | viability, T/C [18]: 14.7% | viability, T/C [19]: 19.1% | viability, T/C [20]: 14.2% | viability, T/C [21]: 10.4% | viability, T/C [22]: 9.64% | viability, T/C [23]: 12.4% | viability, T/C [24]: 10.6% | viability, T/C [25]: 18.9% | viability, T/C [26]: 12.2% | viability, T/C [27]: 11.1% | viability, T/C [28]: 8.14% | viability, T/C [29]: 10.1% | viability, T/C [30]: 8.5% | viability, T/C [31]: 15.4% | viability, T/C [32]: 12.7% | viability, T/C [33]: 10.5% | viability, T/C [34]: 10.9% | viability, T/C [35]: 7.61% | viability, T/C [36]: 8.53%
